# Measurements taken from PMC9822194, “Chemoselective Synthesis of Mannich Adducts from 1,4-Naphthoquinones and Profile as Autophagic Inducers in Oral Squamous Cell Carcinoma” (Molecules, 2022).
# pIC50: −log10 of the molar value. Like-named read-outs stand apart in the source and are kept apart here.
# What was measured:
# [1] = test system: SCC9 cells; experiment: MTT assay with cell death inhibitors (ZVAD, necrostatin-1, 3-MA); type: cell-based, Human; conditions: SCC9, 3-MA 5000 µM
# Experimental: Cell viability assay (cytotoxicity) and stability assay. To assess cell viability, cells were grown in triplicate in 96-well plates (5 × 10^3 cells/well) until confluence when treated with the different compounds as in Machado et al.. Briefly, DMSO in the same concentrations was used as a 100% cell viability control. […] Louis, MO, USA) for 3.5 h. Formazan crystals were dissolved in MTT solvent (DMSO/methanol 1:1 v/v) and the absorbance at 560 nm was evaluated using an EPOCH microplate spectrophotometer (BioTek Instruments, Winooski, VT, USA) with background absorbance at 670 nm subtracted. Each of the eighteen compounds was tested at six or seven different concentrations, ranging from 0.3 µM to 200 µM in cancer cell lines (SCC-4, SCC-9 and SCC-25) and 0.4 µM to 300 µM in normal primary human gingival fibroblast.
# [2] = test system: OSCC cell lines (SCC 4, SCC-9 and SCC-25); experiment: MTT assay, mean over three OSCC cell lines and average selectivity index; type: cell-based, Human
# Experimental: (§1) Cell viability assay (cytotoxicity) and stability assay. To assess cell viability, cells were grown in triplicate in 96-well plates (5 × 10^3 cells/well) until confluence when treated with the different compounds as in Machado et al.. Briefly, DMSO in the same concentrations was used as a 100% cell viability control. After 48 h, cells were incubated with 5 mg/mL MTT reagent (3-(4,5-dimethyl-2-thiazolyl)-2,5-diphenyl-2H-tetrazolium bromide) (Sigma-Aldrich Co., St. Louis, MO, USA) for 3.5 h. Formazan crystals were dissolved in MTT solvent (DMSO/methanol 1:1 v/v) and the absorbance at 560 nm was evaluated using an EPOCH microplate spectrophotometer (BioTek Instruments, Winooski, VT, USA) with background absorbance at 670 nm subtracted. Each of the eighteen compounds was tested at six or seven different concentrations, ranging from 0.3 µM to 200 µM in cancer cell lines (SCC-4, SCC-9 and SCC-25) and 0.4 µM to 300 µM in normal primary human gingival fibroblast.
# (§2) Statistical analysis, IC50 calculation. IC50 values for MTT assays were obtained by non-linear regression using the GraphPad Prism 5.0 software (GraphPad, San Diego, CA, USA) from at least three independent experiments. Data are presented as means ± SD. A dose-response (inhibitor) vs response curve using the least squares method was used to determine the IC50, SD and R2 of the data. The selectivity index was calculated as S.I. = IC50 of the compound in normal oral fibroblast cells/IC50 of the same compound for each oral cancer cell line (SCC-4, SCC-9 and SCC-25) and the mean was calculated when indicated.
# [3] = test system: normal human gingival fibroblasts; experiment: MTT cell viability assay, normal fibroblasts; type: cell-based; conditions: Homo sapiens, Fibroblast, 48 h, read-out: Primary Gengival Fibroblast IC50
# Experimental: (§3) Cells and reagents. Human SCC-4, SCC-9 and SCC-25 cells, derived from a human oral tongue SCC were obtained from the ATCC (CRL-1624; CRL-1629 and CRL-1628, respectively) and maintained at 1:1 DMEM/F12 (Dulbecco’s modified Eagle medium and Ham’s F12 medium; Gibco, Thermo Fisher, Waltham, MA, USA) supplemented with 10% (v/v) FBS (fetal bovine serum; Invitrogen, Thermo Fisher, Waltham, MA, USA) and 400 ng/mL hydrocortisone (Sigma-Aldrich Co., St. Louis, MO, USA). Primary normal human gingival fibroblasts were obtained from the ATCC (PCS-201-018), maintained in DMEM supplemented with 10% (v/v) FBS, and used in a maximum of 6 passages. Cells were grown in a humidified environment containing 5% CO2 at 37 °C. […] Carboplatin in water (Fauldcarbo®; Libbs Farmacêutica, São Paulo, SP, Brazil) was used as a standard anticancer compound.
# as §1, §2
# [4] = test system: SCC-4 cells; experiment: MTT cell viability assay, SCC4; type: cell-based, Human; conditions: Homo sapiens, SCC-4, 48 h, read-out: SCC4 IC50
# Experimental: as §3, §1, §2
# [5] = test system: SCC-9 (OSCC cells); experiment: MTT cell viability assay (cytotoxicity), SCC9; type: cell-based, Human; conditions: for pIC50: Homo sapiens, SCC-9, 48 h
# Experimental: as §3, §1, §2
# [6] = test system: SCC-25 cells; experiment: MTT cell viability assay, SCC25; type: cell-based, Human; conditions: Homo sapiens, SCC-25, 48 h, read-out: SCC25 IC50
# Experimental: as §3, §1, §2
smiles,measurement,setting,value
"CC(C)=CC[C@@H](O)C1=CC(=O)c2c(O)ccc(O)c2C1=O [Shikonin, reference compound]",Effect of autophagy inhibitor 3-MA on induced cell death,[1],reduced cell death
same,pIC50,"[2]; Homo sapiens, read-out: Oral Tumor Cells Mean IC50",5.76
same,Average S.I.,"[2]; average selectivity index over SCC-4, SCC-9, SCC-25 vs normal fibroblasts",0.98
same,pIC50,[3],5.76
same,pIC50,[4],5.72
same,pIC50,[5]; read-out: SCC9 IC50,5.74
same,pIC50,[5]; read-out: SCC9—Oral Cancer IC50,5.74
same,Selective Index (S.I.),[5]; IC50 normal oral fibroblasts/IC50 SCC-9,0.95
same,pIC50,[6],5.82
